Results reported in patent publication US11613531B2, “Inhibitors of RHO associated coiled-coil containing protein kinase” (Kadmon Corporation, LLC, priority 2017, dated 2023).
Like-named read-outs stand apart in the source and are kept apart here.

Columns and labels:
[1] = biological target: Recombinant ROCK2 (amino acids 1-552) (Homo sapiens (Human), UniProt O75116); assay: Z′-Lyte kinase assay, ROCK2; type: biochemical; details: for inhibition at 1 µM: 1 μM compound; for inhibition at 1 µM / inhibition at 0.5 µM / inhibition at 3 µM: read-out: ROCK2 % inh. @ [conc]; for inhibition at 0.5 µM: 0.5 μM compound; for inhibition at 3 µM: 3 μM compound
How it was run: (§1)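 IC50s derive from nonlinear curve fits over a 9-point, 2-fold dilution series, with single-point inhibition at 1 μM expressed relative to DMSO. Activity of truncated human ROCK1 (residues 1-535) and ROCK2 (residues 1-552) measured with the Z′-Lyte kinase format.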

[2] = test system: human ACTA2 gene promoter luciferase reporter in NIH3T3 cells; assay: NIH3T3 Acta2-promoter driven-luciferase assay; type: cell-based; details: NIH3T3, 24 h, read-out: NIH3T3 Acta2-luc, IC50
Experimental: NIH3T3 Cells Acta2-Promoter Driven-Luciferase Assay.
A NIH3T3 cell line stably expressing a luciferase reporter driven by the human ACTA2 gene promoter (−1000-1 bp) was established (NIH3T3-Acta2-luciferase). The cells were plated to confluence and treated with the test compounds plus TGFβ1 for 24 hr. Cells were then lysed and luciferase activity was measured using the LightSwitch luciferase kit from Active Motif.
In vitro activities for the compounds were measured with Z′-lyte kinase kit (ThermoFisher Scientific). The percent inhibition rate was calculated by normalizing the kinase activity value obtained with 1 μM compound treatment against DMSO control value and then applied to the formula, [1-(compound/DMSO)]×100%. IC50s were calculated using the nonlinear regression curve fit function of the GraphPad Prism software with kinase activities data measured with 9 points 2-fold serial dilution of compounds treatment. In cell pMLC IC50s were calculated with data obtained from A7R5 cell experiments. A7R5 cells were treated with 9 points 2-fold serial dilution of compounds and ppMlc (T18/S19) levels were determined to calculate cellular IC50 values of the compounds using the nonlinear regression curve fit function of the GraphPad Prism software. NIH3T3 cells stably expressing ACTA2-promoter-driven-luciferase were applied to measure ROCK compounds functional IC50s in cells. Cells were plated in 96 well plates to confluence and treated with 9 points serial dilution of compounds in combination with TGFβ1 for 24 hr. Luciferase activities were measured and compound's IC50s were calculated using the nonlinear regression curve fit function of the GraphPad Prism software.
ROCK inhibitors can be effectively rank ordered by ACTA2-promoter-driven-luciferase reporter cell assay. NIH3T3 cells stably expressing ACTA2-promoter-driven-luciferase were plated in 96 well plates to confluence and treated with 9 points serial dilution of compounds in combination with TGFβ1 for 24 hr. Luciferase activities were measured and compound's IC50s were calculated. By this assay multiple compounds of the invention gave IC50s under 200 nM.

[3] = test system: ppMlc (T18/S19) levels in A7R5 cells; assay: A7R5 in-cell ELISA (pMLC); type: cell-based, Rat; details: Rattus norvegicus, A7R5, A7R5 cells; for inhibition at 1 µM: 1 μM compound; for inhibition at 1 µM / inhibition at 10 µM: read-out: pMLC % inh A7R5 @ [conc]; for inhibition at 10 µM: 10 μM compound
How it was run: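 Cellular IC50 came from a nonlinear regression fit of ppMlc (T18/S19) signal, read by colorimetric in-cell ELISA on fixed cells. Rat A7R5 aortic smooth muscle cells had been exposed for 90 min to compounds in 9-point 2-fold serial dilution, 24 h after seeding.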

[4] = biological target: Recombinant ROCK1 (amino acids 1-535) (Homo sapiens (Human), UniProt Q13464); assay: Z′-Lyte kinase assay, ROCK1; type: biochemical; details: for inhibition at 3 µM: 3 μM compound; for inhibition at 3 µM / inhibition at 0.5 µM: read-out: ROCK1 % inh. @ [conc]; for inhibition at 0.5 µM: 0.5 μM compound
How it was run: as §1

[5] = NIH3T3 cells, plus TGFβ1 for 24 hr
[6] = 9 points 2-fold serial dilution

Recombinant ROCK2 (amino acids 1-552), sequence (O75116 1-552): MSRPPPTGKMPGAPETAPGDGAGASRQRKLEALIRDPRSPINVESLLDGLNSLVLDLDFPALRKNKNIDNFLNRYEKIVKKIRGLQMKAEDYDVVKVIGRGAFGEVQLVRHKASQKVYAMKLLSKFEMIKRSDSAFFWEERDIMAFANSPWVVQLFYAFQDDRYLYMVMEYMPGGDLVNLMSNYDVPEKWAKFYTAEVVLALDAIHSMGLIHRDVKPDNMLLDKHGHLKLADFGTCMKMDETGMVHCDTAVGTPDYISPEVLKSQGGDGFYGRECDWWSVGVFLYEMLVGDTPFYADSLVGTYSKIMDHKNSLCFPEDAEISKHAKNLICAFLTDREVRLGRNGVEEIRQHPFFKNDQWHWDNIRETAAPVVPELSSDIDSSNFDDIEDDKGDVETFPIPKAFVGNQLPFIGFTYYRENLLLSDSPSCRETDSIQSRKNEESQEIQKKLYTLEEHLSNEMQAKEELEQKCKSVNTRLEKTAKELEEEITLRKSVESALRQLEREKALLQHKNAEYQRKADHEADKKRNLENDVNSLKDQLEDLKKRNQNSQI
Recombinant ROCK1 (amino acids 1-535), sequence (Q13464 1-535): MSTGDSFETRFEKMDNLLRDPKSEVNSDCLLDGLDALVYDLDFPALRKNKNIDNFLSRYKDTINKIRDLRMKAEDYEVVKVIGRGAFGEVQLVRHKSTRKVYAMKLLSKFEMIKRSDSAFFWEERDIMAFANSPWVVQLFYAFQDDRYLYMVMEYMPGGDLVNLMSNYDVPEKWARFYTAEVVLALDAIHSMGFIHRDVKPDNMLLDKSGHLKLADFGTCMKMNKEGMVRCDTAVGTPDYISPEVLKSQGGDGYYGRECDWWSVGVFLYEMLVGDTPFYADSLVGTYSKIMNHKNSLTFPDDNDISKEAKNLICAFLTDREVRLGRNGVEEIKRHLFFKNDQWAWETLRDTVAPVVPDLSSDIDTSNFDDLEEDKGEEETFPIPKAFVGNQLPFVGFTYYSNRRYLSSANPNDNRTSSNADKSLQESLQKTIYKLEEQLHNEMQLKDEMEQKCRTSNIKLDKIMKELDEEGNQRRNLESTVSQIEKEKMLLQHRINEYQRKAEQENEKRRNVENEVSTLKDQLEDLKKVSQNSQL

For Fc1cnc(N2CCC3NCC3C2)nc1Nc1ccc2[nH]ncc2c1 (stereo not drawn) [Example 170, N-(2-(3,7-diazabicyclo[4.2.0]octan-3-yl)-5-fluoropyrimidin-4-yl)-1H-indazol-5-amine], the IC50 [1] was 27 nM, the inhibition at 1 µM [1] was 99.1% and the IC50 ([2]; with TGFβ1, 24 hr) was 572 nM. It also gave an IC50 [3] of 274 nM and an inhibition at 1 µM [3] of 31.5%.

Compound CN(C)c1cc(Nc2cc3cn[nH]c3cc2F)nc(N2C3CCC2CNC3)n1 [Example 331, 2-(3,8-diazabicyclo[3.2.1]octan-8-yl)-N4-(6-fluoro-1H-indazol-5-yl)-N6,N6-dimethylpyrimidine-4,6-diamine] has an IC50 [1] of 5.9 nM and an IC50 ([2]; with TGFβ1, 24 hr) of 318 nM.

For CN(C)c1nc(N2C3CCC2CNC3)nc(Nc2ccc3[nH]ncc3c2)c1F [Example 342], the IC50 [1] was 0.1 nM, the IC50 ([2]; with TGFβ1, 24 hr) was 1950 nM and the IC50 [3] was 26 nM.

With CN(C)c1nc(N2C3CCC2CNC3)nc(Nc2ccc3[nH]ncc3c2)c1Cl [Example 344, 2-(3,8-diazabicyclo[3.2.1]octan-8-yl)-5-chloro-N^4-(1H-indazol-5-yl)-N^6,N^6-dimethylpyrimidine-4,6-diamine] the IC50 [1] was 1.7 nM, the IC50 ([2]; with TGFβ1, 24 hr) was 192 nM and the IC50 [3] was 82 nM.

Compound Cc1nc(N2C3CNCC2C3)nc(Nc2ccc3[nH]ncc3c2)c1F [Example 301, N-(2-(3,6-diazabicyclo[3.1.1]heptan-6-yl)-5-fluoro-6-methylpyrimidin-4-yl)-1H-indazol-5-amine] has an IC50 [1] of 0.4 nM, an inhibition at 0.5 µM [1] of 100% and an IC50 ([2]; with TGFβ1, 24 hr) of 178 nM. The IC50 [3] was 16 nM.

In the case of Fc1cnc(N2CCC3CNCC3CC2)nc1Nc1ccc2[nH]ncc2c1 (stereo not drawn) [Example 169, N-(5-fluoro-2-(octahydropyrrolo[3,4-d]azepin-6(1H)-yl)pyrimidin-4-yl)-1H-indazol-5-amine], the inhibition at 1 µM [1] is reported as 99.5%, the IC50 ([2]; with TGFβ1, 24 hr) is reported as 1830 nM and the IC50 [3] is reported as 395 nM. The inhibition at 1 µM [3] was 30.9%.

Work on COc1cc2[nH]ncc2cc1Nc1nc(N2C3CCC2CNC3)ncc1Cl [Example 305, N-(2-(3,8-diazabicyclo[3.2.1]octan-8-yl)-5-chloropyrimidin-4-yl)-6-methoxy-1H-indazol-5-amine] yielded an IC50 [1] of 160 nM, an inhibition at 0.5 µM [1] of 83% and an IC50 ([2]; with TGFβ1, 24 hr) of 3810 nM. The IC50 [3] was 1410 nM.

CNC1CC2CC1CN2c1ncc(F)c(Nc2ccc3[nH]ncc3c2)n1 (stereo not drawn) [Example 334, N-(5-fluoro-2-(5-(methylamino)-2-azabicyclo[2.2.1]heptan-2-yl)pyrimidin-4-yl)-1H-indazol-5-amine] gave an IC50 [1] of 121 nM, an IC50 ([2]; with TGFβ1, 24 hr) of 1650 nM and an IC50 [3] of 889 nM.

Compound Cc1cc(Nc2ccc3[nH]ncc3c2)nc(N2CC3CC2CN3)n1 (stereo not drawn) [Example 211, N-(2-(2,5-diazabicyclo[2.2.1]heptan-2-yl)-6-methylpyrimidin-4-yl)-1H-indazol-5-amine] has an inhibition at 1 µM [1] of 104%, an IC50 [2, 5] of 437 nM and an inhibition at 1 µM [3] of 35.8%. The IC50 ([3]; ppMlc (T18/S19)) was 66 nM.

Work on c1cc2[nH]ncc2cc1Nc1nc(N2C3CNCC2C3)nc2c1COCC2 [Example 307, 2-(3,6-diazabicyclo[3.1.1]heptan-6-yl)-N-(1H-indazol-5-yl)-7,8-dihydro-5H-pyrano[4,3-d]pyrimidin-4-amine] yielded an IC50 [1] of 2.6 nM, an IC50 ([2]; with TGFβ1, 24 hr) of 2050 nM and an IC50 [3] of 977 nM.

With c1cc(Nc2ccc3[nH]ncc3c2)nc(N2CC[C@@H]3NC[C@@H]3C2)n1 [Example 82, N-(2-((1R,6S)-3,7-diazabicyclo[4.2.0]octan-3-yl)pyrimidin-4-yl)-1H-indazol-5-amine] the IC50 [1] was 12 nM, the IC50 ([2]; with TGFβ1, 24 hr) was 3420 nM and the IC50 [3] was 572 nM. It also gave an inhibition at 1 µM [3] of 42.5%.

c1cc(-c2ccc(Nc3nc(N4C5CCC4CNC5)nc4c3COCC4)cc2)ccn1 [Example 37, 2-(3,8-diazabicyclo[3.2.1]octan-8-yl)-N-(4-(pyridin-4-yl)phenyl)-7,8-dihydro-5H-pyrano[4,3-d]pyrimidin-4-amine] showed an IC50 ([2]; with TGFβ1, 24 hr) greater than 10000 nM and an IC50 [3] of 7060 nM.

For Cc1cnc(N2CCNC(C(C)C)C2)nc1Nc1ccc2[nH]ncc2c1 (stereo not drawn) [Example 101, N-(2-(3-isopropylpiperazin-1-yl)-5-methylpyrimidin-4-yl)-1H-indazol-5-amine], the IC50 [2, 5] was 7530 nM and the inhibition at 10 µM [3] was 19.2%.

For c1cc(Nc2ccc3[nH]ncc3c2)nc(N2CCNCC2)n1 [Example 34, N-(2-(piperazin-1-yl)pyrimidin-4-yl)-1H-indazol-5-amine], the IC50 [4] was 31 nM, the inhibition at 3 µM [4] was 102% and the IC50 [1] was 29 nM. The inhibition at 3 µM [1] was 101%, the IC50 [3] was 393 nM and the inhibition at 10 µM [3] was 62.4%.

Work on CC1CN(c2ncc(Cl)c(Nc3ccc4[nH]ncc4c3)n2)CC(C)N1 (stereo not drawn) [Example 189, N-(5-chloro-2-(3,5-dimethylpiperazin-1-yl)pyrimidin-4-yl)-1H-indazol-5-amine] yielded an inhibition at 0.5 µM [4] of 18%, an inhibition at 0.5 µM [1] of 14% and an inhibition at 10 µM [3] of 33.4%. It also gave an IC50 ([3]; ppMlc (T18/S19)) of 637 nM.

With CC(C)C1CN(c2nccc(Nc3ccc4[nH]ncc4c3)n2)CCCN1 (stereo not drawn) [Example 65, N-(2-(3-isopropyl-1,4-diazepan-1-yl)pyrimidin-4-yl)-1H-indazol-5-amine] the IC50 [4, 6] was 98 nM, the IC50 [1, 6] was 353 nM and the inhibition at 10 µM [3] was 47.8%. The IC50 ([3]; ppMlc (T18/S19)) was 1980 nM.

For CN1CCc2c(nc(N3C4CNCC3C4)nc2Nc2ccc3[nH]ncc3c2)C1 [Example 313, 2-(3,6-diazabicyclo[3.1.1]heptan-6-yl)-N-(1H-indazol-5-yl)-7-methyl-5,6,7,8-tetrahydropyrido[3,4-d]pyrimidin-4-amine], the inhibition at 0.5 µM [4] was 94%, the IC50 [1] was 14 nM and the inhibition at 0.5 µM [1] was 99%. For the same compound, the IC50 [3] was 3030 nM.

CC(C)C1CN(c2nccc(Nc3ccc4[nH]ncc4c3)n2)CCN1 (stereo not drawn) [Example 59, N-(2-(3-isopropylpiperazin-1-yl)pyrimidin-4-yl)-1H-indazol-5-amine] was tested, and the inhibition at 3 µM [4] was 100%, the IC50 [4, 6] was 671 nM and the inhibition at 3 µM [1] was 100%. For the same compound, the IC50 [1, 6] was 902 nM and the IC50 ([3]; ppMlc (T18/S19)) was 4780 nM.

With CCC1CN(c2nccc(Nc3ccc4[nH]ncc4c3)n2)CCN1 (stereo not drawn) [Example 58, N-(2-(3-ethylpiperazin-1-yl)pyrimidin-4-yl)-1H-indazol-5-amine] the inhibition at 3 µM [4] was 99%, the IC50 [4, 6] was 192 nM and the inhibition at 3 µM [1] was 98.8%. It also gave an IC50 [1, 6] of 144 nM and an IC50 ([3]; ppMlc (T18/S19)) of 1080 nM.

CC1CCN(c2nc(Nc3ccc(-c4ccncc4)cc3)c3ccccc3n2)CCN1 (stereo not drawn) [Example 239, 2-(5-methyl-1,4-diazepan-1-yl)-N-(4-(pyridin-4-yl)phenyl)quinazolin-4-amine] showed an inhibition at 3 µM [4] of 100%, an IC50 [4, 6] greater than 1000 nM and an inhibition at 3 µM [1] of 100%. The IC50 [1, 6] was greater than 1000 nM and the IC50 ([3]; ppMlc (T18/S19)) was 6350 nM.

With CC1CCN(c2nccc(Nc3ccc(-c4ccncc4)cc3)n2)CCN1 (stereo not drawn) [Example 45, 2-(5-methyl-1,4-diazepan-1-yl)-N-(4-(pyridin-4-yl)phenyl)pyrimidin-4-amine] the inhibition at 3 µM [4] was 99%, the IC50 [4, 6] was 307 nM and the inhibition at 3 µM [1] was 98.8%. It also gave an IC50 [1, 6] of 649 nM and an IC50 ([3]; ppMlc (T18/S19)) of 2120 nM.

Compound CCC1CCN(c2nccc(Nc3ccc4[nH]ncc4c3)n2)CCN1 (stereo not drawn) [Example 60, N-(2-(5-ethyl-1,4-diazepan-1-yl)pyrimidin-4-yl)-1H-indazol-5-amine] has an inhibition at 3 µM [4] of 100%, an IC50 [4, 6] of 660 nM and an inhibition at 3 µM [1] of 100%. For the same compound, the IC50 [1, 6] was 450 nM and the IC50 ([3]; ppMlc (T18/S19)) was 3440 nM.

In the case of CNc1cc(Nc2ccc3[nH]ncc3c2)nc(N2C3CCC2CNC3)n1 [Example 329, 2-(3,8-diazabicyclo[3.2.1]octan-8-yl)-N4-(1H-indazol-5-yl)-N6-methylpyrimidine-4,6-diamine], the IC50 [1] is reported as 1.8 nM and the IC50 ([2]; with TGFβ1, 24 hr) is reported as 90 nM.

With c1ccc(C2CCN(c3nccc(Nc4ccc5[nH]ncc5c4)n3)CCN2)cc1 (stereo not drawn) [Example 63, N-(2-(5-phenyl-1,4-diazepan-1-yl)pyrimidin-4-yl)-1H-indazol-5-amine] the inhibition at 3 µM [4] was 100%, the IC50 [4, 6] was greater than 1000 nM and the inhibition at 3 µM [1] was 100%. For the same compound, the IC50 [1, 6] was greater than 1000 nM and the IC50 ([3]; ppMlc (T18/S19)) was 25100 nM.
